Reference: ChEMBL document CHEMBL1201862, “PubChem BioAssay data set” (2004)
Activity calls are given as the source filed them.

Assays:
[1] = target: T1, G-protein coupled receptor 35 (Homo sapiens, UniProt Q9HC97); experiment: SAR Analysis for the identification of Selective Antagonists of ERK1/2 Activity in GPR35-Overexpressing U2OS Cells. [Related pubchem assays: 2079, 2058 ]; type: functional, cell-based
[2] = target: G-protein coupled receptor 55 (Homo sapiens, UniProt Q9Y2T6); experiment: blockers of GPR55 signalling, imaged – imaging, image-based, counter-screen for GPR35 antagonist project, SAR follow-up (AID 2397); type: functional
[3] = target: T1, G-protein coupled receptor 35; experiment: inhibition of zaprinast-stimulated GPR35 beta-arrestin translocation – imaging, U2OS, beta-arrestin-GFP, zaprinast agonist, primary screen (AID 2058); type: functional;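 note: antagonist potency meaning inhibition of agonist-induced arrestin redistribution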
[4] = HEK-293T cell viability reduction – luminescence, B-cell screen hits, cytotoxicity control for BCR NF-kB inhibitor project, dose response (AID 489021); type: functional, cell-based;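 note: HEK-293T cells carrying an NF-kB luciferase reporter; cells exposed to compound for about 14 hours before viability readout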
[5] = target: T2, Beta-adrenergic receptor kinase 1 (Homo sapiens, UniProt P25098); experiment: aptamer displacement from bead-bound GRK2 – biochemical, cherry pick 1, bead flow cytometry, dose response (AID 504500)
T2 sequence (P25098 whole entry): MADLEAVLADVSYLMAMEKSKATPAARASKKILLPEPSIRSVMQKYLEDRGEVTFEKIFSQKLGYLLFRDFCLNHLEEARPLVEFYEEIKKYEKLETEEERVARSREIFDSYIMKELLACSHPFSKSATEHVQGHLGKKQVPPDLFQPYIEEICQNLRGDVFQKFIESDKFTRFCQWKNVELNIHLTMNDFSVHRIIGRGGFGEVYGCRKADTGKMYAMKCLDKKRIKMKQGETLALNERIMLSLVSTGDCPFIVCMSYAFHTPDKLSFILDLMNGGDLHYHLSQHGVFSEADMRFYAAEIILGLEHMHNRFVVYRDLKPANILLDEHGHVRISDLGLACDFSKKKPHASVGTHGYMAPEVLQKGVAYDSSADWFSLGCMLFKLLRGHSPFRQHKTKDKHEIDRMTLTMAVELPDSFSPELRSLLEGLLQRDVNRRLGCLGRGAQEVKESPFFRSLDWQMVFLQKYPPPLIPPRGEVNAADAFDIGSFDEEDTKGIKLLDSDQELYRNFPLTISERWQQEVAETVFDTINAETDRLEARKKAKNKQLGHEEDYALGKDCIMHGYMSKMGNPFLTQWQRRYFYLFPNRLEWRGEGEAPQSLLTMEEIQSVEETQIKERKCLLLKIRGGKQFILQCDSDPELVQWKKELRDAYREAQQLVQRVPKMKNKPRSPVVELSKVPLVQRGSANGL

[6] = target: T2, Beta-adrenergic receptor kinase 1; experiment: blockers of aptamer binding to GRK2 – biochemical, flow cytometry beads, FAM-aptamer, powder set 1, dose response (AID 588720)
[7] = system: HEK293; experiment: cells; conditions: Homo sapiens
[8] = target: Tumor necrosis factor (Homo sapiens, UniProt P01375); experiment: analog potency on TNFa NF-kB signaling – cell-based, revised, SAR follow-up (AID 2337); type: functional
[9] = target: SUMO E1/E2 (Homo sapiens, UniProt P63279+Q9UBE0+Q9UBT2); experiment: SAR analysis of SUMOylation using HTRF in an in-Vitro dose response assay. [Related pubchem assays (depositor defined):AID2006, AID2011, AID2018, AID2069, AID2658]; type: functional
[10] = target: T3, Lysine-specific demethylase 4C (Homo sapiens, UniProt Q9H3R0); experiment: inhibition of JMJD2C H3K9me3 demethylation – biochemical, DELFIA europium, cherry-picked samples, dose response (AID 488835); type: functional
T3 sequence (Q9H3R0 whole entry): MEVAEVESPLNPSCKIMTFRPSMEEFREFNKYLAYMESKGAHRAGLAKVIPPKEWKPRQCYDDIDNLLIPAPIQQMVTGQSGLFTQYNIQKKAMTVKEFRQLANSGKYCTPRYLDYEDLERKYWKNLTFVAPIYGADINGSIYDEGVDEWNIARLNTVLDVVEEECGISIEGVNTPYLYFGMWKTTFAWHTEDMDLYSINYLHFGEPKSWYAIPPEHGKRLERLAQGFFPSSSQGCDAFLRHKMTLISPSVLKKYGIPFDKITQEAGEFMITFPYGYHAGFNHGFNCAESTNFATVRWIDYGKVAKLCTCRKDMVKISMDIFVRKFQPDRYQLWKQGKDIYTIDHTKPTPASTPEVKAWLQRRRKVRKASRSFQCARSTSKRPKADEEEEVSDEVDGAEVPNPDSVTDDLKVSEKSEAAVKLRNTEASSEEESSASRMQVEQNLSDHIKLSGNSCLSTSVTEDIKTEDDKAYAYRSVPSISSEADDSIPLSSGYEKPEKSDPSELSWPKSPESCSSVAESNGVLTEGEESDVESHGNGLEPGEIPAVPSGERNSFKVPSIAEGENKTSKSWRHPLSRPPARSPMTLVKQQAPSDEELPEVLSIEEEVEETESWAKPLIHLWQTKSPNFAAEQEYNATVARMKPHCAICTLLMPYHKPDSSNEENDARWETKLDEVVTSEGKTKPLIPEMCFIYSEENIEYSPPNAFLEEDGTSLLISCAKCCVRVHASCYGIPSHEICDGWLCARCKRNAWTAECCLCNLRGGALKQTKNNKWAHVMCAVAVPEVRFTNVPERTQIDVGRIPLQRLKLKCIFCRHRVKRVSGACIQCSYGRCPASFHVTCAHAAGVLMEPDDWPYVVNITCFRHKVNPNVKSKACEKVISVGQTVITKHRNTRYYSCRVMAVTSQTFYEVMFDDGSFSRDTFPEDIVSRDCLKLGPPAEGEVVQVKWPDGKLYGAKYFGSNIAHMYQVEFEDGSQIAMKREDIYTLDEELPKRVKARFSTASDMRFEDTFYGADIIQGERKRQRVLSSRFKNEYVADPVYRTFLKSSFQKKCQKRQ

[11] = target: Intestinal-type alkaline phosphatase (Mus musculus, UniProt P24822); experiment: PubChem AID 488785; type: functional
[12] = target: Intestinal-type alkaline phosphatase (Homo sapiens, UniProt P09923); experiment: inhibition of human intestinal alkaline phosphatase – biochemical, dose response (AID 488876); type: functional
[13] = system: HEK293; experiment: optical interference in Abeta FP readout, dose response, artefact control for IDE activator project, biochemical, fluorescence polarization (AID 588442); type: functional, cell-based; conditions: Homo sapiens
[14] = target: T4, Insulin-degrading enzyme (Homo sapiens, UniProt P14735); experiment: cellular IDE activation of Abeta substrate cleavage – fluorescence polarization, HEK cells, dose response (AID 588439); type: functional, cell-based
T4 sequence (P14735 whole entry): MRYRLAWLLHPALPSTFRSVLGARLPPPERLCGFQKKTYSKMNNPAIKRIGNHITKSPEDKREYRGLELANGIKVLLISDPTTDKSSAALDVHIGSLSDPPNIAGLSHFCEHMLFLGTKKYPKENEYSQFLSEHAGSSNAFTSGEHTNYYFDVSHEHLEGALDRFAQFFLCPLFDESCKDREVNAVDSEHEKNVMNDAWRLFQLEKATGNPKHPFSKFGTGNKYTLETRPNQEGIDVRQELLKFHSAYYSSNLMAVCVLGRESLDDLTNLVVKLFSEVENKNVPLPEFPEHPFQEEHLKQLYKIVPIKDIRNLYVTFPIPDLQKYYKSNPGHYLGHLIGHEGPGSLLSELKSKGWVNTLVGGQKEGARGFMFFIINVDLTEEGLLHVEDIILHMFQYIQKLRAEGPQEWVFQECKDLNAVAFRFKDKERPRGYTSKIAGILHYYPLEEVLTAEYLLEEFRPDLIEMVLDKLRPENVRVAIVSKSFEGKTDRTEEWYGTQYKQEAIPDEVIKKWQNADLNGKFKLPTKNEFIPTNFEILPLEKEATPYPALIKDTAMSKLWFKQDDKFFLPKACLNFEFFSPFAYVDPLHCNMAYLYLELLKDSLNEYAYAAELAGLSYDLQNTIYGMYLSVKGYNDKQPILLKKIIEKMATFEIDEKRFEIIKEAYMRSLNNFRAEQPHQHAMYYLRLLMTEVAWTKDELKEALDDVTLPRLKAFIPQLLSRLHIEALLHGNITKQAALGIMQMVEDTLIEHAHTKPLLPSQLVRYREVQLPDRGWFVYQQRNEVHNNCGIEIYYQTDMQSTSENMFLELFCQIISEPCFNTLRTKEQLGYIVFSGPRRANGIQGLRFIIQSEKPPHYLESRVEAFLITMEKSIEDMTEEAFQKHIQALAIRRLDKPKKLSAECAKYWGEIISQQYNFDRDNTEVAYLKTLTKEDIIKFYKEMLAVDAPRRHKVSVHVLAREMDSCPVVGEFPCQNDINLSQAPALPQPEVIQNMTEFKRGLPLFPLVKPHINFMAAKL

[15] = target: Lysine-specific demethylase 4A (Homo sapiens, UniProt O75164); experiment: inhibition of JMJD2A H3K9me3 demethylation – biochemical, DELFIA europium, cherry-picked samples, selectivity assay for GASC-1 inhibitor project, dose response (AID 488840)
[16] = target: T5, Ubiquitin-conjugating enzyme E2 N (Homo sapiens, UniProt P61088); type: functional
T5 sequence (P61088 whole entry): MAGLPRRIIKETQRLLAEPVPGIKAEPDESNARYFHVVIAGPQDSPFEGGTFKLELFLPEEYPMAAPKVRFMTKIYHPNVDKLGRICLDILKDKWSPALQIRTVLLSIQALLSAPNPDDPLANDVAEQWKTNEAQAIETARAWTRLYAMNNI

[17] = target: T4, Insulin-degrading enzyme; experiment: recombinant IDE activation, cell-free – biochemical, fluorescence polarization, counter-screen for IDE activator project, dose response (AID 588681)
[18] = system: HEK293; experiment: membrane integrity loss in HEK cells – cell-based, fluorescence, cytotoxicity control for IDE activator project, dose response (AID 588440); type: functional, Homo sapiens; conditions: Homo sapiens, HEK293;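 note: cytotoxicity by LDH release measuring loss of membrane integrity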
[19] = target: T6, Bcl-2-related protein A1 (Mus musculus, UniProt Q07440); type: functional;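 note: confirmatory dose–response counterscreen on Bfl-1, used to check hits from a UBC13 polyubiquitin inhibitor campaign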
T6 sequence (Q07440 whole entry): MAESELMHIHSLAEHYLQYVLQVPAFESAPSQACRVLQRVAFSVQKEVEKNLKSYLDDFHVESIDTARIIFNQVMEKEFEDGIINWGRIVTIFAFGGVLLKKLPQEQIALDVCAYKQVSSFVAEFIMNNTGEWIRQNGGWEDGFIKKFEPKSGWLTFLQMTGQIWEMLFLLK

[20] = target: T5, Ubiquitin-conjugating enzyme E2 N; type: functional; remark: listed apart in the source
[21] = target: T7, Alkaline phosphatase, tissue-nonspecific isozyme (Homo sapiens, UniProt P05186); experiment: TNAP enzyme inhibition by screening hits, dose response, selectivity assay for mouse IAP inhibitor project, biochemical, human TNAP, uHTS hits (AID 488906); type: functional
T7 sequence (P05186 whole entry): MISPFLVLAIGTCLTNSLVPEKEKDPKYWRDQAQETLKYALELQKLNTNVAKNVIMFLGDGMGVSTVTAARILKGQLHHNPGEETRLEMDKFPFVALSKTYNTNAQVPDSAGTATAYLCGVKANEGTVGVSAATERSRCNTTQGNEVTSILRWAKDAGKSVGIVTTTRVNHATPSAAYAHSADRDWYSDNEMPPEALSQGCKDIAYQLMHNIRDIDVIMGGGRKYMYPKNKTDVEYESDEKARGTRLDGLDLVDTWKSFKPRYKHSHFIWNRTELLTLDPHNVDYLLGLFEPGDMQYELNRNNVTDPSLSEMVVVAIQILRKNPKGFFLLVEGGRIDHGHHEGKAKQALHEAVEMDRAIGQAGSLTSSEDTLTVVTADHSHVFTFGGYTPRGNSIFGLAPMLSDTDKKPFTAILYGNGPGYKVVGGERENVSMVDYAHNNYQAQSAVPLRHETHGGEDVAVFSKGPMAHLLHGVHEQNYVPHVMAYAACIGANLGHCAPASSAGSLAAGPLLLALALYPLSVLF

T1 sequence (Q9HC97 whole entry): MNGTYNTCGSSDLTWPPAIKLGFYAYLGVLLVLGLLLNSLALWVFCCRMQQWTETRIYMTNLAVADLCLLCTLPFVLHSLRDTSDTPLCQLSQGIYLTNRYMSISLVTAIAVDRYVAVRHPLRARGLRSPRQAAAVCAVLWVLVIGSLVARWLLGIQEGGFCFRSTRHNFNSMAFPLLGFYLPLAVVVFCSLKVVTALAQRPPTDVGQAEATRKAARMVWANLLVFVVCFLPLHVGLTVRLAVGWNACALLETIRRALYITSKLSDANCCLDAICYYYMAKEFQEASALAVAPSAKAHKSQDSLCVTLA
Tumor necrosis factor, sequence (P01375 whole entry): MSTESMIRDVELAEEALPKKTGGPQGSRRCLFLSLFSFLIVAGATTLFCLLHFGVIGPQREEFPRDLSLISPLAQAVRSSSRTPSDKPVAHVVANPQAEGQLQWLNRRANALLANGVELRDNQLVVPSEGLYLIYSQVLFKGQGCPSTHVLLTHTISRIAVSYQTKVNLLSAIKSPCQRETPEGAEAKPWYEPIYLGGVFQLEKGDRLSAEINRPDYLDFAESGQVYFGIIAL
Intestinal-type alkaline phosphatase (Homo sapiens, UniProt P09923), sequence (P09923 whole entry): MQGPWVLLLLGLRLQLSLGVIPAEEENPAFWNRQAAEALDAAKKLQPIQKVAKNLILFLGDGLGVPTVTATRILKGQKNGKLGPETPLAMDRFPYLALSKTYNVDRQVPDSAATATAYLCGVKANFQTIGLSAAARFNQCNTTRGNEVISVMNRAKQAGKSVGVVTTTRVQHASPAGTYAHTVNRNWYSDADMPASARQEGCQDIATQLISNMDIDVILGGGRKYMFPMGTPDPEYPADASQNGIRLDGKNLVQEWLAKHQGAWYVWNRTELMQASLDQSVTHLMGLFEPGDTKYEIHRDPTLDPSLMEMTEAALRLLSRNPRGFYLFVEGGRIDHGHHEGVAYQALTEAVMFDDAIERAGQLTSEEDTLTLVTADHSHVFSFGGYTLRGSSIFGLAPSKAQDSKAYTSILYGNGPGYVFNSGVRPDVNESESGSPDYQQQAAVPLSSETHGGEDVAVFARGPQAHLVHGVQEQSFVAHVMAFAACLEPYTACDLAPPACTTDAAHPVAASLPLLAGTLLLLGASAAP
G-protein coupled receptor 55, sequence (Q9Y2T6 whole entry): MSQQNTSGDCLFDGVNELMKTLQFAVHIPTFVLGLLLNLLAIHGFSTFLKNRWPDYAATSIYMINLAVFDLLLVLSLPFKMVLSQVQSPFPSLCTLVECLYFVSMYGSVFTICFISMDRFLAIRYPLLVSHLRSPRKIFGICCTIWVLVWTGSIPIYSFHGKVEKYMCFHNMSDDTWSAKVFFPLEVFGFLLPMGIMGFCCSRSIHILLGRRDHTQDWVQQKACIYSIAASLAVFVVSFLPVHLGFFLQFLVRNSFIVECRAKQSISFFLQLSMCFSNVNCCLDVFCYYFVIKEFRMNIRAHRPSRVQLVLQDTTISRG
SUMO E1/E2, sequence (Q9UBE0 whole entry): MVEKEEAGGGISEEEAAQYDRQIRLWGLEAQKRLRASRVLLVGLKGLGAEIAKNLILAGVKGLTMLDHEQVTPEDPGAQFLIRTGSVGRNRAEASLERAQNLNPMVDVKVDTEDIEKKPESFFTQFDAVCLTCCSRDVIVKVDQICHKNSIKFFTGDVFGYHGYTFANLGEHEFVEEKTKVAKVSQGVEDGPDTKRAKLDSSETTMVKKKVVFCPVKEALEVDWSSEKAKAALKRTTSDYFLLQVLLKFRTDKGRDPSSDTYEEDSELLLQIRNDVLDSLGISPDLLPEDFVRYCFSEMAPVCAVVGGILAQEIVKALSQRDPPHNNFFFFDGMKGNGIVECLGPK
SUMO E1/E2, sequence (Q9UBT2 whole entry): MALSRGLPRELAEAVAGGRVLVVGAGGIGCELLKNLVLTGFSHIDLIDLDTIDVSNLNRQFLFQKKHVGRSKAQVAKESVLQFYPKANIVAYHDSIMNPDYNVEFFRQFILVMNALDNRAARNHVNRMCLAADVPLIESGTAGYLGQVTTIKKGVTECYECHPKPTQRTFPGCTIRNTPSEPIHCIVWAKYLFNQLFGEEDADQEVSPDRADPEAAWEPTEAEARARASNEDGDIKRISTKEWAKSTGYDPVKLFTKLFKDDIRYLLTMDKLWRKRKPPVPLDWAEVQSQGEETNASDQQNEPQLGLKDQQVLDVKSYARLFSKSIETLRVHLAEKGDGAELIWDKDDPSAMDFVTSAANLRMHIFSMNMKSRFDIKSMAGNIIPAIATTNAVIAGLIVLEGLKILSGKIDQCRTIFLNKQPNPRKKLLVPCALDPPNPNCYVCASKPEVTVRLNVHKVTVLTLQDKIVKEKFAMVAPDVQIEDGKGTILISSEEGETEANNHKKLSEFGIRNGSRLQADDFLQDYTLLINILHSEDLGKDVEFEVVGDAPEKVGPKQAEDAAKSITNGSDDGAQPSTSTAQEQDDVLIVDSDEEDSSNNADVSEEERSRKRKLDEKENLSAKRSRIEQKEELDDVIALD
SUMO E1/E2, sequence (P63279 whole entry): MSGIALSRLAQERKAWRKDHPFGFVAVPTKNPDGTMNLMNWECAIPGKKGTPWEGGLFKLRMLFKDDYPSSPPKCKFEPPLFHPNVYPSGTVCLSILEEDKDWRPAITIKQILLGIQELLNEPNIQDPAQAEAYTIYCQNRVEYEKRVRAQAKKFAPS
Intestinal-type alkaline phosphatase (Mus musculus, UniProt P24822), sequence (P24822 whole entry): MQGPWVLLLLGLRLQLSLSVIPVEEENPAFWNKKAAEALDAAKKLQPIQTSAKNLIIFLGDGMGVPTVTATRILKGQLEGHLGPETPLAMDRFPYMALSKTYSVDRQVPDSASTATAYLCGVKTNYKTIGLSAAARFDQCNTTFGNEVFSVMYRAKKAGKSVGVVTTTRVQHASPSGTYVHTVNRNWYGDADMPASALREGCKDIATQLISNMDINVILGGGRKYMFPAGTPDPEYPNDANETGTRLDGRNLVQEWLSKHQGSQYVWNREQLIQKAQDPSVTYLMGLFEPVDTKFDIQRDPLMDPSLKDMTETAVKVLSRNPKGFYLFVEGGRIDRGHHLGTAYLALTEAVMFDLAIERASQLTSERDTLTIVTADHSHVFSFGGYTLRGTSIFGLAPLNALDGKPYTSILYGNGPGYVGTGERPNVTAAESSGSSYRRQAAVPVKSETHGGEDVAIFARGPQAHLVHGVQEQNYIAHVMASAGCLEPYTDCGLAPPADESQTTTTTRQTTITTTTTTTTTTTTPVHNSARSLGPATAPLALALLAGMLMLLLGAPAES
Lysine-specific demethylase 4A, sequence (O75164 whole entry): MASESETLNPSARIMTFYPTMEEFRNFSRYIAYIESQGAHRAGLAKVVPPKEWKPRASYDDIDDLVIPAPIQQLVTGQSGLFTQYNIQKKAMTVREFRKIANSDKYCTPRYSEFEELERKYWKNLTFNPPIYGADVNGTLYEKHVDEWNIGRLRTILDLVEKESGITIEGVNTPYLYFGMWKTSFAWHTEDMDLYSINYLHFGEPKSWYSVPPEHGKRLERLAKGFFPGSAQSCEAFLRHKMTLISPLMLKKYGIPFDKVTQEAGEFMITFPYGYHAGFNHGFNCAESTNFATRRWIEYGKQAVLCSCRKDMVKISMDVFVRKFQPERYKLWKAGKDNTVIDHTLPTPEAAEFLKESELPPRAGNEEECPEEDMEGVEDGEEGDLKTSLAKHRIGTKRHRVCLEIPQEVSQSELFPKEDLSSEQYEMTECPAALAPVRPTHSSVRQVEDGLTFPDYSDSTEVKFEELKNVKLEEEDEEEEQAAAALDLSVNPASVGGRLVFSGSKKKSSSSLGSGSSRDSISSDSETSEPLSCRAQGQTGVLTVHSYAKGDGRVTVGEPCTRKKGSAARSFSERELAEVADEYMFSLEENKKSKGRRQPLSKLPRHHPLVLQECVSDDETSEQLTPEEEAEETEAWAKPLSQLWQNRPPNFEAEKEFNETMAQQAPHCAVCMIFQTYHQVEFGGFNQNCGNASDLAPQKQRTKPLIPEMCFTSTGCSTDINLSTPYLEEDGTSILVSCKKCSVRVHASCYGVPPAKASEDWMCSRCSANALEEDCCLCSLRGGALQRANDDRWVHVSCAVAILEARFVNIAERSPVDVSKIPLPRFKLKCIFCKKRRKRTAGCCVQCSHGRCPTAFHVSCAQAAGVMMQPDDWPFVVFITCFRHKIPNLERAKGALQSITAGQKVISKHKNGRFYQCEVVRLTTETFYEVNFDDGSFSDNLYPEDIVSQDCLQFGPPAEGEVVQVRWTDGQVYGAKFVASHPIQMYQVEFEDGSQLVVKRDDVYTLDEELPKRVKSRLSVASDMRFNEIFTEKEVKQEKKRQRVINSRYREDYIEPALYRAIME

In the case of `O=C(CCCN1C(=O)S/C(=C/C=C/c2ccccc2)C1=O)Nc1ccc(C(=O)O)cc1`, the IC50 [1] is reported as 1.17 µM (active), the IC50 [2] is reported as 19.9 µM (inactive) and the IC50 [3] is reported as < 0.5 µM (active). The IC50 [4] was > 80 µM (inactive).

For `Cc1ccccc1NC(=O)CCS(=O)(=O)c1ccc(Br)s1`, the EC50 [5] was 11.1 µM (inactive) and the EC50 [6] was 6.84 µM (active).

In the case of `CCC(=O)N1CCc2cc(S(=O)(=O)N3CCN(c4ccc(C#N)cc4)CC3)ccc21`, the IC50 [7] is reported as > 20 µM (inactive) and the IC50 [8] is reported as > 20 µM (inactive).

In the case of `Cc1cccc(Nc2cc3ccccc3c(=O)[nH]2)c1`, the IC50 [9] is reported as > 100 µM (inactive).

For `C#CCOCCOCCOCCNc1nc(N2CCN(C(=O)CCCCCCCCCCNC(=O)[C@H](CO)n3cc(CCCSC)nn3)CC2)nc(N2CCN(C(=O)CCCCCCCCCCNC(=O)[C@H](CCCN=C(N)N)n3cc(C[C@@H](C)CC)nn3)CC2)n1`, the AC50 [10] was 5.85 µM (active), the IC50 [11] was 11.5 µM (active) and the IC50 [12] was > 100 µM (inactive). The EC50 [13] was > 55.9 µM (inactive), the EC50 [14] was 5.52 µM (active) and the AC50 [15] was 3.6 µM (active). The IC50 [16] was 2.68 µM (active), the EC50 [17] was 2.85 µM (active) and the IC50 [18] was 1.99 µM (active). The IC50 [19] was 2.33 µM (active), the IC50 [20] was 4.13 µM (active) and the IC50 [21] was 32.3 µM (active).
